The values that follow come from paper PMC4692482, “Structure and Stability of the Dimeric Triosephosphate Isomerase from the Thermophilic Archaeon Thermoplasma acidophilum” (PLoS ONE, 2015).

In the assay the target is T1, TaTPI (Thermoplasma acidophilum, UniProt Q9HLB6).
T1 construct: gene tpiA; full length, 216 residues, C-terminal His6-tag (pET-28a(+)), expressed in E. coli Rosetta 2(DE3)pLysS; 24,671 Da monomer; homodimer
As to the kind of experiment: X-ray crystallography ([…] A). Format: binding. Conditions: 20 mM G3P incubated with apo protein 4 h at 4 C; pH 8.5; active site (Lys9, His89, Glu137); substrate analogue.

T1 sequence (Q9HLB6 whole entry): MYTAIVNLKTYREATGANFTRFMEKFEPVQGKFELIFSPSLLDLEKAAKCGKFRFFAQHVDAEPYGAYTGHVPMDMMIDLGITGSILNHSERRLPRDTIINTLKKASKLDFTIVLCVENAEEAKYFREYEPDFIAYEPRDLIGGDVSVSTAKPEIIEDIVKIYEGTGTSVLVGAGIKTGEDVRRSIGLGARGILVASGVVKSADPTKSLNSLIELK

Consider `O=P(O)(O)OC[C@H](O)CO` [G3P, glycerol-3-phosphate], for which the “X-ray crystallography (2.17 A)” value is on record as “G3P is well positioned at the active site of TaTPI with functionally conserved residues”.
